Assay results: publication PMC4769034 (Journal of medicinal chemistry, 2015)
Converted amounts (≈) assume the structure as drawn.

Key:
[1] = Solubility in water by HPLC analysis
[2] = Solubility in ethanol by HPLC analysis; settings: vs compound 1
plasma leptin = settings: 50 mg/kg by oral gavage for 3 weeks; cited from earlier work
[3] = tested on: pancreatic ductal adenocarcinoma (PDA) cells; settings: cited from earlier work
MIA PaCa-2 cells = settings: 10 mg/kg via i.p. injection for 3 weeks; cited from earlier work
PKA = settings: cited from earlier work
[4] = cited from earlier work
[5] = no reference given; cited from earlier work
PDEs = settings: cited from earlier work
CYP450 enzymes = settings: cited from earlier work
hERG = settings: cited from earlier work
[6] = cited from earlier work; remark: listed apart in the source
[7] = tested on: Middle East respiratory syndrome coronavirus (MERS-Cov); settings: cited from earlier work
rickettsial infection = settings: mouse, in vivo; cited from earlier work

| Structure (SMILES) | fold improvement of solubility in water in comparison with 1 ([1]; vs compound 1) | solubility at 24 h ([1]; water) [µg/mL] | fold improvement of solubility in ethanol in comparison with 1 [2] [fold] | plasma leptin (plasma leptin) | PDA cell migration and invasion [3] | effect on PDA cell proliferation and viability [3] | metastasis to the liver (MIA PaCa-2 cells) | effect toward PKA (PKA) | bioavailability [4] | membrane permeability [5] | inhibitory effects on PDEs (PDEs) | inhibitory activity toward CYP450 enzymes (CYP450 enzymes) | inhibitory activity toward hERG (hERG) | toxicity to animals [6] | MERS-CoV viral yields [7] | survival after rickettsial infection (rickettsial infection) |
| --- | --- | --- | --- | --- | --- | --- | --- | --- | --- | --- | --- | --- | --- | --- | --- | --- |
| CC(C)(C)c1cc(C(=O)/C(C#N)=N/Nc2cc(C(F)(F)F)cc(C(F)(F)F)c2)no1 [Compound 25, N′-(3,5-Bis(trifluoromethyl)phenyl)-2-(5-tert-butylisoxazol-3-yl)-2-oxoacetohydrazonoyl Cyanide] | approximately 70 fold | 418 ± 17.3 (≈ 968 µM) | ~10 | – | – | – | – | – | – | – | – | – | – | – | – | – |
| CC(C)(C)c1cc(C(=O)/C(C#N)=N/Nc2cccc(Cl)c2)no1 [Compound 1, 2-(5-tert-butylisoxazol-3-yl)-N′-(3-chlorophenyl)-2-oxoacetohy-drazonoyl cyanide] | – | – | – | significantly reduces plasma leptin | significant decrease | no obvious effect | significantly decrease metastasis to the liver | no effect | excellent bioavailability | good membrane permeability | no significant inhibitory effects | very weak inhibitory activities | very weak inhibitory activities | low toxicity | significantly reduce viral yields | dramatically improved survival |
